Patent US8748484B2, “Organometallic anti-cancer complexes” (Research Foundation of The City University of New York, priority 2011, dated 2014)

What was measured:
Test in all cases: Antiproliferative activity, viable cell count (trypan blue) after 96 hours
Format in all cases: cell-based, human
[1] = system: GRANTA-519; settings: for IC50: GRANTA-519, MCL, 96 hours, 50% growth inhibition vs DMSO
Method: (§1) The antiproliferative activity of compounds 1-4 was determined in the seven types of human cancer cell lines K562 (Chronic Myelogenous Leukemia, CML), HT-29 (colon), and HL-60 (Acute Myloid Leukemia, AML), DU-145 (prostate), MCF-7 (breast), and GRANTA-519 (Mantle Cell Leukemia, MCL), and NSCL (non small cell lung carcinoma) and compared with cisplatin.
(§2) Human cancer cells were plated in twelve-well dishes at a cell density of 2.5×10^4 cells/ml/well. The cells were treated, in duplicate, 24 hours later with increasing concentrations of each compound or cisplatin from Sigma (Table 3). The total number of viable cells was determined after 96 hours later by cell counting by hemacytometer and trypan blue staining. The percentage of viable cells remaining was calculated as follows: number of viable cells (compound treated)/number of viable cells (DMSO treated)*100. Compound 1 dose response assay plot (FIG. 3) is the average percent viable cells of the treated compared to the vehicle (DMSO) treated cells. DU-145, MCF-7, HT-29, H460 cells were grown in DMEM and K562, HL-60, Granata-519 cells were grown in RPMI medium both supplemented with 10% FBS (cell Generation) and 1 unit penicillin. Cells were routinely grown and treated at 37° C. under 90% humidity. The IC50 (50% growth inhibition as compared to DMSO treated control) values in micromoles were determined by extrapolation from the dose response curves. Dose response curves were generated by plotting the percentage of cells at each concentration versus concentration tested. Compound 1 was chosen to produce more detailed growth curves based on overall highest activity profile. Similarly, cells were treated at increasing concentrations of cisplatin and detailed growth curves were generated (FIG. 4). Thus the activity of compound 1 was compared to cisplatin.

[2] = system: DU145; settings: for IC50: DU145, Prostate, 96 hours, 50% growth inhibition vs DMSO
Method: as §1, §2

[3] = system: HT-29; settings: for IC50: HT-29, Colon, 96 hours, 50% growth inhibition vs DMSO, Compound 4 values above 25 μM are estimates from the plot 1-25 μM
Method: as §1, §2

[4] = system: H460; settings: for IC50: H460, NSCLC, 96 hours, 50% growth inhibition vs DMSO, Compound 4 values above 25 μM are estimates from the plot 1-25 μM
Method: as §1, §2

[5] = system: K562; settings: for IC50: K562, CML, 96 hours, 50% growth inhibition vs DMSO, Compound 4 values above 25 μM are estimates from the plot 1-25 μM
Method: as §1, §2

[6] = system: MCF-7; settings: for IC50: MCF-7, Breast, 96 hours, 50% growth inhibition vs DMSO, Compound 4 values above 25 μM are estimates from the plot 1-25 μM
Method: as §1, §2

[7] = system: HL-60; settings: for IC50: HL-60, AML, 96 hours, 50% growth inhibition vs DMSO
Method: as §1, §2

In the case of `N.N.[Cl][Pt][Cl]` [Cisplatin, reference compound], the IC50 [1] is reported as 250 nM, the IC50 [2] is reported as 1000 nM and the IC50 [3] is reported as 3000 nM. It also gave an IC50 [4] of 750 nM, an IC50 [5] of 1500 nM and an IC50 [6] of 1500 nM. The IC50 [7] was 750 nM.

For `CC1=C2[O][Ru-]3(=[C]=O)(=[C]=O)([O+]=C2C=CO1)[Ru](=[C]=O)(=[C]=O)(=[C]=O)(=[C]=O)[Ru-]31(=[C]=O)(=[C]=O)[O]C2=C(C)OC=CC2=[O+]1` [Cmpd 1, [Ru3(CO)8(C12H10O6)]], the IC50 [1] was 75 nM, the “anticancer activity relative to cisplatin” value ([1]; GRANTA-519, times more potent than cisplatin) was 2-3 times and the IC50 [2] was 500 nM. For the same compound, the “anticancer activity relative to cisplatin” value ([2]; DU-145, times more potent than cisplatin) was 2-3 times, the IC50 [3] was 500 nM and the “anticancer activity relative to cisplatin” value ([3]; HT-29, times higher than cisplatin) was 5-7 times. For the same compound, the IC50 [4] was 750 nM, the “anticancer activity relative to cisplatin” value ([4]; NSCL (non small cell lung carcinoma)) was “the same as cisplatin” and the IC50 [5] was 300 nM. For the same compound, the “anticancer activity relative to cisplatin” value ([5]; K562, times higher than cisplatin) was 5-7 times, the IC50 [6] was 400 nM and the “anticancer activity relative to cisplatin” value ([6]; MCF-7, times more potent than cisplatin) was 2-3 times. For the same compound, the IC50 [7] was 100 nM and the “anticancer activity relative to cisplatin” value ([7]; HL-60, times higher than cisplatin) was 5-7 times.

`CC1=C2[O][Ru-]3(=[C]=O)(=[C]=O)([O+]=C2C=CO1)[Ru](=[C]=O)(=[C]=O)(=[C]=O)([P](c1ccccc1)(c1ccccc1)c1ccccc1)[Ru-]31(=[C]=O)(=[C]=O)[O]C2=C(C)OC=CC2=[O+]1` [Cmpd 2, [Ru3(CO)7(C12H10O6)(PPh3)]] gave an IC50 [2] of 2500 nM, an IC50 [3] of 5000 nM and an IC50 [4] of 5000 nM. For the same compound, the IC50 [5] was 2500 nM, the IC50 [6] was 2500 nM and the IC50 [7] was 750 nM.

For [Ru3(CO)6(C12H10O6)(dppe)] [Cmpd 4], the IC50 [2] was 10000 nM.

With [Ru3(CO)6(C12H10O6)(dppm)] [Cmpd 3] the IC50 [2] was 25000 nM, the IC50 [3] was greater than 100000 nM and the IC50 [4] was 70000 nM. It also gave an IC50 [5] of 30000 nM, an IC50 [6] of 75000 nM and an IC50 [7] of 25000 nM.
